Tests used:
[1] = target: T1, Recombinant Human NF-kappaB-inducing Kinase (NIK/MAP3K14) (Homo sapiens (Human), UniProt Q99558); assay: Biological Assay A2: inhibition of auto-phosphorylation of recombinant human NIK/MAP3K14 (AlphaScreen); assay type: biochemical; conditions: 25 microM ATP, 0.2 nM GST-tagged NIK/MAP3K14, 1 h at 25° C., averaged values, read-out: Alpha-Screen IC50
Protocol: Inhibition of Auto-phosphorylation of Recombinant Human NF-kappaB-inducing Kinase (NIK/MAP3K14) Activity (AlphaScreen®)
NIK/MAP3K14 auto-phosphorylation activity was measured using the AlphaScreen® (αscreen) format (Perkin Elmer). All compounds tested were dissolved in dimethyl sulfoxide (DMSO) and further dilutions were made in assay buffer. Final DMSO concentration was 1% (v/v) in assays. Assay buffer was 50 mM Tris pH 7.5 containing 1 mM EGTA (ethylene glycol tetraacetic acid), 1 mM DTT (dithiothreitol), 0.1 mM Na3VO4, 5 mM MgCl2, 0.01% Tween® 20. Assays were carried out in 384 well Alphaplates (Perkin Elmer). Incubations consisted of compound, 25 microM Adenosine-5′-triphosphate (ATP), and 0.2 nM NIK/MAP3K14. Incubations were initiated by addition of GST-tagged NIK/MAP3K14 enzyme, carried out for 1 h at 25° C. and terminated by addition of stop buffer containing anti-phospho-IKK Ser176/180 antibody. Protein A Acceptor and Glutathione-Donor beads were added before reading using an EnVision® Multilabel Plate Reader (Perkin Elmer). Signal obtained in the wells containing blank samples was subtracted from all other wells and IC50's were determined by fitting a sigmoidal curve to % inhibition of control versus Log10 compound concentration.

JJN-3 cells = assay: Biological Assay C: antiproliferative activity on JJN-3 cells (CellTiter-Glo); assay type: cell-based; conditions: Homo sapiens, 72 hr of treatment, averaged values
Protocol: (§1) Determination of Antiproliferative Activity on LP-1, L-363 and JJN-3 Cells
(§2) All compounds tested were dissolved in DMSO and further dilutions were made in culture medium. Final DMSO concentration was 0.3% (v/v) in cell proliferation assays. Viability was assessed using CellTiter-Glo cell viability assay kit (Promega). The human LP-1, L-363 and JJN-3 cells (DSMZ) were cultured in RPMI 1640 medium supplemented with 2 mM L-glutamine, and 10% fetal calf serum (PAA). Cells were routinely kept as suspension cells at 37° C. in a humidified 5% CO2 atmosphere. Cells were passaged at a seeding density of 0.2×10^6/ml twice a week. Cells were seeded in black tissue culture treated 96-well plates (Perkin Elmer). Densities used for plating ranged from 2,000 to 6,000 cells per well in a total volume of 75 μl medium. After twenty four hours, drugs and/or solvents were added (25 μl) to a final volume of 100 μl. Following 72 hr of treatment plates were removed from the incubator and allowed to equilibrate to room temperature for approx 10 min. 100 μl CellTiter-Glo reagent was added to each well that was then covered (Perkin Elmer Topseal) and shaken on plate shaker for 10 min. Luminescence was measured on a HTS Topcount (Perkin Elmer). Within an experiment, the results for each treatment were the mean of 2 replicate wells. For initial screening purposes, compounds were tested using a 9 point dilution curve (serial 1:3 dilutions). For each experiment, controls (containing no drug) and a blank incubation (containing cells read at the time of compound addition) were run in parallel. The blank value was subtracted from all control and sample values. For each sample, the mean value for cell growth (in relative light units) was expressed as a percentage of the mean value for cell growth of the control.

L-363 cells = assay: Biological Assay C: antiproliferative activity on L-363 cells (CellTiter-Glo); assay type: cell-based; conditions: Homo sapiens, 72 hr of treatment, averaged values
Protocol: as §1, §2

LP-1 cells = assay: Biological Assay C: antiproliferative activity on LP-1 cells (CellTiter-Glo); assay type: cell-based; conditions: Homo sapiens, 72 hr of treatment, averaged values
Protocol: as §1, §2

[2] = test system: P-IKKα levels in L363 cells; assay: Biological Assay B: effect of compounds on P-IKKα levels in L363 cells; assay type: cell-based; conditions: Homo sapiens, L-363; L363 cells with BAFF, 2 hr treatment; averaged values; read-out: IKKα Cellular IC50
Protocol: Effect of Compounds on P-IKKα Levels in L363 Cells
All compounds tested were dissolved in DMSO and further dilutions were made in culture medium. Final DMSO concentration was 1% (v/v) in cell assays. The human L363 cells (ATCC) were cultured in RPMI 1640 medium supplemented with GlutaMax and 10% fetal calf serum (PAA). Cells were routinely maintained at densities of 0.2×10^6 cells per ml-1×10^6 cells per ml at 37° C. in a humidified 5% CO2 atmosphere. Cells were passaged twice a week splitting back to obtain the low density. Cells were seeded in 96 well plates (Nunc 167008) at 2×10^6 per ml media in a volume of 75 μl per well plus 25 μl 1 μg/ml recombinant human B-cell activating factor (BAFF/BLyS/TNFSF13B). Seeded cells were incubated at 37° C. in a humidified 5% CO2 atmosphere for 24 hr. Drugs and/or solvents were added (20 μl) to a final volume of 120 μl. Following 2 hr treatment plates were removed from the incubator and cell lysis was achieved by the addition of 30 μl 5× lysis buffer followed by shaking on a plate shaker at 4° C. for 10 min. At the end of this incubation lysed cells were centrifuged at 800×g for 20 min at 4° C. and the lysate was assessed for P-IKKα levels by sandwich immuno-assay carried out in anti-rabbit antibody coated Mesoscale plates. Within an experiment, the results for each treatment were the mean of 2 replicate wells. For initial screening purposes, compounds were tested using an 8 point dilution curve (serial 1:3 dilutions). For each experiment, controls (containing MG132 and BAFF but no test drug) and a blank incubation (containing MG132 and BAFF and 10 μM ADS125117, a test concentration known to give full inhibition) were run in parallel. The blank incubation value was subtracted from all control and sample values. To determine the IC50 a sigmoidal curve was fitted to the plot of % inhibition of control P-IKKα levels versus Log10 compound concentration.

[3] = target: T1, Recombinant Human NF-kappaB-inducing Kinase (NIK/MAP3K14); assay: Biological Assay A: inhibition of recombinant human NIK/MAP3K14 activity (MSD, MBP substrate); conditions: 25 μM ATP, 10 nM NIK/MAP3K14, 1 h at 25° C.; averaged over all measurements on all batches; read-out: Biochemical (MSD MBP) IC50
Protocol: Inhibition of Recombinant Human NF-kappaB-inducing Kinase (NIK/MAP3K14) Activity
Assay buffer was 50 mM Tris pH 7.5 containing 1 mM EGTA (ethylene glycol tetraacetic acid), 1 mM DTT (dithiothreitol), 0.1 mM Na3VO4, 5 mM MgCl2, 0.01% Tween® 20. Assays were carried out in 384 well Mesoscale high binding plates which had been coated with myelin basic protein (MBP) and blocked with bovine serum albumin to prevent non-specific protein binding. All compounds tested were dissolved in dimethyl sulfoxide (DMSO) and further dilutions were made in assay buffer. Final DMSO concentration was 1% (v/v) in assays. Incubations consisted of compound (1% DMSO in control and blank wells), 25 μM Adenosine-5′-triphosphate (ATP), and 10 nM NIK/MAP3K14 substituting enzyme with buffer in the blank wells. Incubations were carried out for 1 h at 25° C. and were followed by washing and sequential incubation with rabbit anti-phospho-MBP and anti-rabbit Ig Sulfotag antibody before reading bound Sulfotag on a Mesoscale Discovery. Signal obtained in the wells containing blank samples was subtracted from all other wells and IC50's were determined by fitting a sigmoidal curve to % inhibition of control versus Log10 compound concentration.

T1 sequence (Q99558 whole entry): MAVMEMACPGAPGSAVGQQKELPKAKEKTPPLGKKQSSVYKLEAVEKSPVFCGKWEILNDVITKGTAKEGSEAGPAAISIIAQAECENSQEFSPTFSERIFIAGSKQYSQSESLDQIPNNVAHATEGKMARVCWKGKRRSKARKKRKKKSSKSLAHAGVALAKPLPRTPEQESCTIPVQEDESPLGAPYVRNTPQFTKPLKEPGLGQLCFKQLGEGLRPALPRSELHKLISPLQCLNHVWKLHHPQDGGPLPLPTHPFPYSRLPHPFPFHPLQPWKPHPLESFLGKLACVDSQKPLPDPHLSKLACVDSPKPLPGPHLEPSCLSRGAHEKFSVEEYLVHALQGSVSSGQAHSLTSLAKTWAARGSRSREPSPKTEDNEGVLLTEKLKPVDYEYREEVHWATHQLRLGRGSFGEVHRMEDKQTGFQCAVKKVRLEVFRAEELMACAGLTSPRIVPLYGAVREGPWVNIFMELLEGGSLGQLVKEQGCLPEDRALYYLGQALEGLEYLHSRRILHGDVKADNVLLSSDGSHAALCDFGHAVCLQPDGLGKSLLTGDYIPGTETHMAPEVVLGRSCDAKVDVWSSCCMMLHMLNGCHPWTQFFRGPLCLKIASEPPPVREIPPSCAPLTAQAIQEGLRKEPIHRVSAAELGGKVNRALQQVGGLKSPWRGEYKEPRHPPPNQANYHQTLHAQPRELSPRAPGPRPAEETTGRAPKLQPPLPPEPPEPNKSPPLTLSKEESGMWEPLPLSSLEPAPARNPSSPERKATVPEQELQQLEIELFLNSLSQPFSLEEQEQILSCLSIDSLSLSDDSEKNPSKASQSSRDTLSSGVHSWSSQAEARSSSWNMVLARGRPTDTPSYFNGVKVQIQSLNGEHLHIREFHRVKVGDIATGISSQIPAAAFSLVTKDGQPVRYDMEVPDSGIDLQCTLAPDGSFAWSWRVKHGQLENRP

Row | Compound | IC50 [1] [nM] | EC50 (JJN-3 cells) [nM] | EC50 (L-363 cells) [nM] | EC50 (LP-1 cells) [nM] | IC50 [2] [nM] | IC50 [3] [nM]
1 | CC(C)(O)C#Cc1cc2c(-c3cn[nH]c3)cn(CCO)c2cn1 [Compound 12] | 22 | 1500 | 2450 | 8500 | 185 | 47
2 | Cn1cc(-c2cn[nH]c2)c2cc(C#CC(C)(C)O)ncc21 [Compound 4] | 11 | 1150 | 1030 | 4720 | 210 | 28
3 | CCn1cc(-c2c[nH]nc2C)c2cc(C#CC(C)(C)O)ncc21 [Compound 30] | 23 | 1690 | 2410 | 8230 | 149 | 29
4 | CC(C)(O)C#Cc1cc2c(-c3cn[nH]c3)c[nH]c2cn1 [Compound 1] | 53 | 3340 | 6980 | > 30000 | 736 | 60
5 | CN1CC(n2cc(-c3cn[nH]c3)c3cc(C#CC(C)(C)O)ncc32)C1 [Compound 34] | 171 | 3660 | 2200 | > 30000 | 377 | 76
6 | CN1CCC(n2cc(-c3cn[nH]c3)c3cc(C#CC(C)(C)O)ncc32)CC1 [Compound 19] | 98 | 704 | 570 | 11600 | 602 | 65
7 | CC(C)(O)C#Cc1cc2c(-c3cn[nH]c3)cn(Cc3ccccc3)c2cn1 [Compound 22] | 232 | 6080 | 5530 | 5230 | 1770 | 224
8 | OCCn1cc(-c2cn[nH]c2)c2cc(C#CC3(O)CCCC3)ncc21 [Compound 13] | 17 | 23800 | 11000 | > 30000 | 242 | 14
9 | CC(C)(O)C#Cc1cc2c(-c3cn[nH]c3)cn(CCC(C)(C)O)c2cn1 [Compound 20] | 30 | 2650 | 2260 | > 30000 | 187 | 29
10 | CC(C)(O)C#Cc1cc2c(-c3cn[nH]c3)cn(CC3CCOC3)c2cn1 (stereo not drawn) [Compound 2] | 83 | 3950 | 4340 | 21300 | 829 | 129
11 | CC(O)(C#Cc1cc2c(-c3cn[nH]c3)c[nH]c2cn1)c1nccs1 (stereo not drawn) [Compound 7] | 9 | > 30000 | 5390 | > 30000 | 882 | 9
